Literature values in patent US20140023726A1, “POLYMORPHISMS PREDICTIVE OF PLATINUM-COORDINATING COMPLEX INDUCED OTOTOXICITY” (The University of British Columbia, priority 2006, published 2014).
Read-outs that look alike come from different tables or passages of the source.

N.N.[Cl][Pt][Cl] [cisplatin, trans-diaminedichloro-platinum(II)]
Permanent hearing loss, frequency in patients (children less than 5, standard doses of cisplatin): 48%
Permanent hearing loss, frequency in patients (patients receiving standard doses of cisplatin): 25%
